Reference: ChEMBL document CHEMBL4619726, “Synthesis of novel tryptanthrin derivatives as dual inhibitors of indoleamine 2,3-dioxygenase 1 and tryptophan 2,3-dioxygenase” (Bioorg Med Chem Lett, 2020)
≈ marks a conversion by molar mass, not a printed value.

How the values were obtained:
[1] = Solubility of compound in water; type: physicochemical
[2] = target: T1, Indoleamine 2,3-dioxygenase 1 (Homo sapiens, UniProt P14902); test: Inhibition of IDO1 (unknown origin)
[3] = target: T1, Indoleamine 2,3-dioxygenase 1; test: Inhibition of IDO1 in human HeLa cells; type: cell-based
[4] = target: T2, Tryptophan 2,3-dioxygenase (Homo sapiens, UniProt P48775); test: Inhibition of recombinant human TDO expressed in Escherichia coli BL21 using L-Trp as substrate incubated for 30 mins by enzymatic assay
Target sequence in this assay (P48775 whole entry): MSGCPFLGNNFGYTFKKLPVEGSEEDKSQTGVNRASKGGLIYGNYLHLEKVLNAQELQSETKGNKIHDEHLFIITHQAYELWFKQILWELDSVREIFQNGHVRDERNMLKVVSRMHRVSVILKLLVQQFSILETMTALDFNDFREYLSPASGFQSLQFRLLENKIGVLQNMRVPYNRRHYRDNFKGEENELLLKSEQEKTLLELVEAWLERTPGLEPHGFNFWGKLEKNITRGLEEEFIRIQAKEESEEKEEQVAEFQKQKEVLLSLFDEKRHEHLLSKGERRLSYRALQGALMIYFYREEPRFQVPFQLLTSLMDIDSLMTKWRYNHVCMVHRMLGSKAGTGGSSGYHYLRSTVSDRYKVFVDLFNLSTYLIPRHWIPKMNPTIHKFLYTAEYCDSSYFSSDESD

[5] = target: T2, Tryptophan 2,3-dioxygenase; test: Potency index, ratio of IC50 of LM10 to IC50 of compound for inhibition of TDO (unknown origin)
Target sequence in this assay (P48775 whole entry, looked up): as the sequence (P48775 whole entry) above

[6] = target: T2, Tryptophan 2,3-dioxygenase; test: Potency index, ratio of IC50 of 8-fluorotryptanthrin to IC50 of compound for inhibition of TDO (unknown origin)
Target sequence in this assay (P48775 whole entry, looked up): as the sequence (P48775 whole entry) above

T1 sequence (P14902 whole entry): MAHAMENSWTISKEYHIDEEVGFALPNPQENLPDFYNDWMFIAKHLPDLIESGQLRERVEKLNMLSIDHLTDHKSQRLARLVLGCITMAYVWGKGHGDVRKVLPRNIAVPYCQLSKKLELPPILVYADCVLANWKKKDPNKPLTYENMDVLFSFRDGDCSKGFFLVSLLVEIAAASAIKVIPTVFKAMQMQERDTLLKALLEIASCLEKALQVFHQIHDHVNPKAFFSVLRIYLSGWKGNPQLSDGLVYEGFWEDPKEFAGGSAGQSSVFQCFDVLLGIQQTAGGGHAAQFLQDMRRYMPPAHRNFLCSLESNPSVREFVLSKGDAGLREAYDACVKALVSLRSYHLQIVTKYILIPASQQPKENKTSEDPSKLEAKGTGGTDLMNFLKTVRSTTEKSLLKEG

Structure (SMILES) | solubility [1] [µg/mL] | IC50 [2] [nM] | IC50 [3] [nM] | IC50 [4] [nM] | Ratio IC50 [5] | Ratio IC50 [6]
CCOC(=O)/C=C/c1ccc2nc3n(c(=O)c2c1)-c1ccc(F)cc1C3=O | 0.735 (≈ 2.02 µM) | 190 | 20 | 370 | – | –
O=C1c2cc(F)ccc2-n2c1nc1ccc(CN3CCCC(C(=O)O)C3)cc1c2=O (stereo not drawn) | 14.3 (≈ 35.1 µM) | 570 | 1840 | 420 | – | –
O=C(O)/C=C/c1ccc2nc3n(c(=O)c2c1)-c1ccc(F)cc1C3=O | 1.12 (≈ 3.34 µM) | 120 | 60 | 30 | 386 | 32
CC1(C)OB(c2ccc3nc4n(c(=O)c3c2)-c2ccc(F)cc2C4=O)OC1(C)C | 0.625 (≈ 1.59 µM) | 13100 | 750 | 6020 | – | –
O=C1c2cc(F)ccc2-n2c1nc1ccc(B(O)O)cc1c2=O | 0.69 (≈ 2.23 µM) | 1790 | 230 | 1210 | – | –
O=C1c2cc(F)ccc2-n2c1nc1ccccc1c2=O | 0.741 (≈ 2.78 µM) | – | – | – | – | –
O=Cc1ccc2nc3n(c(=O)c2c1)-c1ccc(F)cc1C3=O | 0.862 (≈ 2.93 µM) | 460 | 160 | 60 | 193 | 16
O=C1c2cc(F)ccc2-n2c1nc1ccc(CN3CCC(C(=O)O)CC3)cc1c2=O | 16.7 (≈ 40.9 µM) | 480 | 3100 | 450 | – | –
O=C1c2cc(F)ccc2-n2c1nc1ccc(Cn3ccnn3)cc1c2=O | 1.28 (≈ 3.69 µM) | 780 | 80 | 1130 | – | –

Other lines, results leading:

solubility [1] [µg/mL] | IC50 [2] [nM] | IC50 [3] [nM] | IC50 [4] [nM] | Ratio IC50 [5] | Ratio IC50 [6] | Structure (SMILES)
15.4 (≈ 39.1 µM) | 550 | 3760 | 180 | – | – | O=C1c2cc(F)ccc2-n2c1nc1ccc(CN3CCCC3C(=O)O)cc1c2=O (stereo not drawn)
0.893 (≈ 2.19 µM) | 460 | 700 | 300 | – | – | COC(=O)C1CCCN1Cc1ccc2nc3n(c(=O)c2c1)-c1ccc(F)cc1C3=O (stereo not drawn)
1.09 (≈ 2.58 µM) | 1430 | 370 | 2870 | – | – | COC(=O)C1CCCN(Cc2ccc3nc4n(c(=O)c3c2)-c2ccc(F)cc2C4=O)C1 (stereo not drawn)
1.05 (≈ 2.5 µM) | 1200 | 150 | 990 | – | – | COC(=O)C1CCN(Cc2ccc3nc4n(c(=O)c3c2)-c2ccc(F)cc2C4=O)CC1
